Assay results: patent publication US9029385B2, “Compositions and methods for treating fibroproliferative disorders” (priority 2007, dated 2015)

Tests used:
Format in all cases: in vivo
TNF-α = assay: Bleomycin-induced pulmonary fibrosis mouse model: TNF-α in bronchoalveolar lavage fluid by ELISA; settings: mice, day 5 post bleomycin instillation, PTX 10 mg/kg, NAC 20 mg/kg IP daily, FIG. 7
Method: Difference of TNF-α at day 5 post bleomycin instillation is shown. Values are means±SD; 5 mice per group. The composition including pentoxifylline (PTX) and N-acetyl-cysteine (NAC) was assessed in vivo in a mouse model using an experimental design in which a pulmonary fibrosis was generated using bleomycin injury of lung. Bleomycin (BLM) is an effective antineoplastic drug that binds to and damages DNA of tumour cells. However, administration of BLM may result in lung inflammation that can progress to fibrosis. This side effect is due mostly to augmented concentration of reactive oxygen species, decrease in nicotinamide adenine dinucleotide (NAD) and adenosine triphosphate (ATP), and overproduction of mature collagen fibrils. Because BLM-induced lung fibrosis is easily reproduced in different species of mammals, experimental models using the drug have been adopted with the goal of investigating the efficacy of the current invention. [table] Mice (under anesthesia) received a single intratracheal dose of either saline (control) or bleomycin (BLM). […] In addition, the lung weights were recorded, photographs of the lungs were taken and tissue samples processed either for biochemical analysis of hydroxyproline (immediately frozen on dry ice) or further morphological analysis (immersed in fixative solution of 10% neutral-buffered formalin). […]

[1] = tested on: bleomycin-induced pulmonary fibrosis; assay: Bleomycin-induced pulmonary fibrosis mouse model: wet lung weight; settings: mice, BLM 0.06 U IT; IP daily for 14 days (PTX 10 mg/kg, NAC 20 mg/kg); vs BLM + saline; FIG. 3
Method: The composition including pentoxifylline (PTX) and N-acetyl-cysteine (NAC) was assessed in vivo in a mouse model using an experimental design in which a pulmonary fibrosis was generated using bleomycin injury of lung. Bleomycin (BLM) is an effective antineoplastic drug that binds to and damages DNA of tumour cells. However, administration of BLM may result in lung inflammation that can progress to fibrosis. This side effect is due mostly to augmented concentration of reactive oxygen species, decrease in nicotinamide adenine dinucleotide (NAD) and adenosine triphosphate (ATP), and overproduction of mature collagen fibrils. Because BLM-induced lung fibrosis is easily reproduced in different species of mammals, experimental models using the drug have been adopted with the goal of investigating the efficacy of the current invention. […] In this example, the effects of PTX and NAC in combination were studied in comparison to PTX and NAC individually. […] In addition, the lung weights were recorded, photographs of the lungs were taken and tissue samples processed either for biochemical analysis of hydroxyproline (immediately frozen on dry ice) or further morphological analysis (immersed in fixative solution of 10% neutral-buffered formalin).

glutathione (GSH) = assay: Bleomycin-induced pulmonary fibrosis mouse model: total glutathione in bronchoalveolar lavage fluid; settings: mice, BLM IT; NAC 20 mg/kg IP daily; FIG. 8
Method: FIG. 8 illustrates total glutathione levels in bronchoalveolar lavage fluid (BALF) in different experimental groups, as indicated. Data are representative of 4 independent experiments, and presented as mean±SD (n=5). The composition including pentoxifylline (PTX) and N-acetyl-cysteine (NAC) was assessed in vivo in a mouse model using an experimental design in which a pulmonary fibrosis was generated using bleomycin injury of lung. Bleomycin (BLM) is an effective antineoplastic drug that binds to and damages DNA of tumour cells. However, administration of BLM may result in lung inflammation that can progress to fibrosis. This side effect is due mostly to augmented concentration of reactive oxygen species, decrease in nicotinamide adenine dinucleotide (NAD) and adenosine triphosphate (ATP), and overproduction of mature collagen fibrils. Because BLM-induced lung fibrosis is easily reproduced in different species of mammals, experimental models using the drug have been adopted with the goal of investigating the efficacy of the current invention. [table] […] In addition, the lung weights were recorded, photographs of the lungs were taken and tissue samples processed either for biochemical analysis of hydroxyproline (immediately frozen on dry ice) or further morphological analysis (immersed in fixative solution of 10% neutral-buffered formalin). […]

[2] = tested on: bleomycin-induced pulmonary fibrosis; assay: Bleomycin-induced pulmonary fibrosis mouse model: lung histopathology and semi-quantitative lesion score (Masson trichrome); settings: mice, fourteen days after intratracheal bleomycin; PTX 10 mg/kg and/or NAC 20 mg/kg IP daily; vs untreated BLM animals
From the text: FIG. 4 illustrates representative photomicrographs of lung histopathology. Normal lung histology is shown in panel A (Group I-saline). […] Collagen is stained with Masson trichrome (light blue color). Original ×10 and ×40 magnifications are shown. FIG. 5 illustrates the effect of pentoxifylline and N-acetyl-cysteine on histological lesions scores of the extent and severity of fibrosis in the experimental groups, as indicated. Data are representative of 5 independent experiments, presented as mean±SD (n=4). The composition including pentoxifylline (PTX) and N-acetyl-cysteine (NAC) was assessed in vivo in a mouse model using an experimental design in which a pulmonary fibrosis was generated using bleomycin injury of lung. Bleomycin (BLM) is an effective antineoplastic drug that binds to and damages DNA of tumour cells. However, administration of BLM may result in lung inflammation that can progress to fibrosis. […] In addition, the lung weights were recorded, photographs of the lungs were taken and tissue samples processed either for biochemical analysis of hydroxyproline (immediately frozen on dry ice) or further morphological analysis (immersed in fixative solution of 10% neutral-buffered formalin).

## CC(=O)CCCCn1c(=O)c2c(ncn2C)n(C)c1=O [PTX, pentoxifylline]
TNF-α
  BLM-induced increase in TNF-α level in BALF: significantly decreased
[1]
  lung weight: lower lung weights were observed but statistical significance was not reached

## CC(=O)N[C@@H](CS)C(=O)O [NAC, N-acetyl-L-cysteine]
Glutathione (GSH)
  total glutathione (GSH) level in BALF: GSH levels can indeed be supplemented
TNF-α
  BLM-induced increase in TNF-α level in BALF: significantly decreased
[1]
  lung weight: lower lung weights were observed but statistical significance was not reached
[2]
  anti-fibrotic effect seen in lung histology: marked anti-fibrotic effect
